# Patent US20260209248A1, “INHIBITORS OF KIF18A AND USES THEREOF” (Insilico Medicine IP Limited, priority 2022, published 2026)
# Biological target: T1, KIF18A (Homo sapiens, UniProt Q8NI77)
# T1 sequence (Q8NI77 1-898): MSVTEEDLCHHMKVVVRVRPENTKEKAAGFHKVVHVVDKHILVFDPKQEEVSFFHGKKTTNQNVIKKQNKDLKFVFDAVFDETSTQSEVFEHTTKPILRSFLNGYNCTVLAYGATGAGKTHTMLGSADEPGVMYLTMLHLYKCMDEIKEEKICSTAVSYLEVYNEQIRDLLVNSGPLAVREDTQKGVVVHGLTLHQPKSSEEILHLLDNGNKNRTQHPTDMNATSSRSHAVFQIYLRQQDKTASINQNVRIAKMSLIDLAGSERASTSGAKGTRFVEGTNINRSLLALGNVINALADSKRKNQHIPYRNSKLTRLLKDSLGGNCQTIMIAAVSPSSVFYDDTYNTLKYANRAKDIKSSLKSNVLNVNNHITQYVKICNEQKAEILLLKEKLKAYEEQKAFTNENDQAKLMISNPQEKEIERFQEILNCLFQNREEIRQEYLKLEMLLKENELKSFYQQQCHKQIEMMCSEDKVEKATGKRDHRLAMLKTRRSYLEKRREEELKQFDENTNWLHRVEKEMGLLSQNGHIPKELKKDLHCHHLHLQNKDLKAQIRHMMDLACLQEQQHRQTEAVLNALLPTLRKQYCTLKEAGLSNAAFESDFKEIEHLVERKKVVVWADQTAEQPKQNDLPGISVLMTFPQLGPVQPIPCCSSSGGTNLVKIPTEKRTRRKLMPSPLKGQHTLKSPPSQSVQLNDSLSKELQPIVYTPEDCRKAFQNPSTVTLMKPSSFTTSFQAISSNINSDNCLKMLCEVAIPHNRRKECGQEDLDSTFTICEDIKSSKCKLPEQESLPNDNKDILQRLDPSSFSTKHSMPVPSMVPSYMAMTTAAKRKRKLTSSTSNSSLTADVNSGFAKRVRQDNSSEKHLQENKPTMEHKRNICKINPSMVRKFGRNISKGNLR
# Test: KIF18A Assay (ADP Glo luminescence)
# Format: biochemical
# Conditions: enzyme pre-incubated 15 min at 25° C., ATP reaction 60 min, 10 pts 1:3 dilution
# Protocol: The KIF18A assay was performed as follows:
# 1.1. Prepared 1× kinase Buffer 1.2. […] 1.3. Data analysis−Calculated IC50 and plot dose-response curve of compounds: • Calculated IC50 by fitting % Inhibition values and log of compound concentrations to nonlinear regression (dose response−variable slope) with GraphPad 6.0.
# [formula] • X: log of inhibitor concentration; Y: % Inhibition
row,IC50 [nM],Structure (SMILES)
1,< 50,"O=C(Nc1ccnc2c1OCC1COCCN21)c1ccc(NS(=O)(=O)CCO)cc1N1CCC2(CC1)CC2 (stereo not drawn) [EX01, 4-((2-hydroxyethyl)sulfonamido)-2-(6-azaspiro[2.5]octan-6-yl)-N-(6a,7,9,10-tetrahydro-6H-[1,4]oxazino[4,3-d]pyrido[3,2-b][1,4]oxazin-4-yl)benzamide]"
2,< 50,"CN1CCCOc2c(NC(=O)c3ccc(NS(=O)(=O)CCO)cc3N3CCC4(CC3)CC4)ccnc21 [EX02, 4-((2-hydroxyethyl)sulfonamido)-N-(5-methyl-2,3,4,5-tetrahydropyrido[3,2-b][1,4]oxazepin-9-yl)-2-(6-azaspiro[2.5]octan-6-yl)benzamide]"
3,< 50,"O=C(Nc1ccc2c(n1)N1CCOCC1CO2)c1ccc(NS(=O)(=O)CCO)cc1N1CCC2(CC1)CC2 (stereo not drawn) [EX03, 4-((2-hydroxyethyl)sulfonamido)-2-(6-azaspiro[2.5]octan-6-yl)-N-(6a,7,9,10-tetrahydro-6H-[1,4]oxazino[4,3-d]pyrido[3,2-b][1,4]oxazin-2-yl)benzamide]"
4,50 to 500,"O=C(Nc1cccn(CCCC(F)(F)F)c1=O)c1ccc(NS(=O)(=O)CCO)cc1N1CCC2(CC1)CC2 [EX04, 4-((2-hydroxyethyl)sulfonamido)-N-(2-oxo-1-(4,4,4-trifluorobutyl)-1,2-dihydropyridin-3-yl)-2-(6-azaspiro[2.5]octan-6-yl)benzamide]"
5,50 to 500,"O=C(Nc1ccc(=O)n(C2CCOCC2)n1)c1ccc(NS(=O)(=O)CCO)cc1N1CCC2(CC1)CC2 [EX05, 4-((2-hydroxyethyl)sulfonamido)-N-(6-oxo-1-(tetrahydro-2H-pyran-4-yl)-1,6-dihydropyridazin-3-yl)-2-(6-azaspiro[2.5]octan-6-yl)benzamide]"
6,500 to 15000,"O=C(Nc1ccc(=O)n(C2CCOCC2)c1)c1ccc(NS(=O)(=O)CCO)cc1N1CCC2(CC1)CC2 [EX06, 4-((2-hydroxyethyl)sulfonamido)-N-(6-oxo-1-(tetrahydro-2H-pyran-4-yl)-1,6-dihydropyridin-3-yl)-2-(6-azaspiro[2.5]octan-6-yl)benzamide]"
7,< 50,"O=C(Nc1ccc2c(n1)N1CCC(F)(F)CC1CO2)c1ccc(NS(=O)(=O)CCO)cc1N1CCC2(CC1)CC2 (stereo not drawn) [EX07, N-(8,8-difluoro-6,6a,7,8,9,10-hexahydrodipyrido[3,2-b:1′,2′-d][1,4]oxazin-2-yl)-4-((2-hydroxyethyl)sulfonamido)-2-(6-azaspiro[2.5]octan-6-yl)benzamide]"
8,< 50,"O=C(Nc1ccc(=O)n(CCCC(F)(F)F)n1)c1ccc(NS(=O)(=O)CCO)cc1N1CCC2(CC1)CC2 [EX08, 4-((2-hydroxyethyl)sulfonamido)-N-(6-oxo-1-(4,4,4-trifluorobutyl)-1,6-dihydropyridazin-3-yl)-2-(6-azaspiro[2.5]octan-6-yl)benzamide]"
9,< 50,"O=C(Nc1ccnc2c1OCC1CC(F)(F)CCN21)c1ccc(NS(=O)(=O)CCO)cc1N1CCC2(CC1)CC2 (stereo not drawn) [EX10, N-(8,8-difluoro-6,6a,7,8,9,10-hexahydrodipyrido[3,2-b:1′,2′-d][1,4]oxazin-4-yl)-4-((2-hydroxyethyl)sulfonamido)-2-(6-azaspiro[2.5]octan-6-yl)benzamide]"
10,500 to 15000,"COCCS(=O)(=O)N1CCc2cc(C(=O)Nc3cccc(N4CCOCC4)n3)c(N3CCC4(CC3)CC4)cc21 [EX13, 1-((2-methoxyethyl)sulfonyl)-N-(6-morpholinopyridin-2-yl)-6-(6-azaspiro[2.5]octan-6-yl)indoline-5-carboxamide]"
11,< 50,"O=C(Nc1cccc(N2CCOCC2)n1)c1cc2c(cc1N1CCC3(CC1)CC3)N(S(=O)(=O)CCO)CC2 [EX14, 1-((2-hydroxyethyl)sulfonyl)-N-(6-morpholinopyridin-2-yl)-6-(6-azaspiro[2.5]octan-6-yl)indoline-5-carboxamide]"
12,< 50,"Cc1cc(NC(=O)c2cc3c(cc2N2CCC4(CC2)CC4)N(S(=O)(=O)CCO)CC3)nc(N2CCC(F)(F)CC2)n1 [EX15, N-(2-(4,4-difluoropiperidin-1-yl)-6-methylpyrimidin-4-yl)-1-((2-hydroxyethyl)sulfonyl)-6-(6-azaspiro[2.5]octan-6-yl)indoline-5-carboxamide]"
13,< 50,"O=C(Nc1ccc(=O)n(C2CC(F)(F)C2)n1)c1cc2c(cc1N1CCC3(CC1)CC3)N(S(=O)(=O)CCO)CC2 [EX18, N-(1-(3,3-difluorocyclobutyl)-6-oxo-1,6-dihydropyridazin-3-yl)-1-((2-hydroxyethyl)sulfonyl)-6-(6-azaspiro[2.5]octan-6-yl)indoline-5-carboxamide]"
14,< 50,"O=C(Nc1ccnc2c1OCC1CC(F)(F)CCN21)c1cc2c(cc1N1CCC3(CC1)CC3)N(S(=O)(=O)CCO)CC2 (stereo not drawn) [EX19, N-(8,8-difluoro-6,6a,7,8,9,10-hexahydrodipyrido[3,2-b:1′,2′-d][1,4]oxazin-4-yl)-1-((2-hydroxyethyl)sulfonyl)-6-(6-azaspiro[2.5]octan-6-yl)indoline-5-carboxamide]"
15,50 to 500,"Cc1cc(NC(=O)c2cc3c(cc2N2CCC4(CC2)CC4)N(S(C)(=O)=O)CC3)nc(N2CCC(F)(F)CC2)n1 [EX20, N-(2-(4,4-difluoropiperidin-1-yl)-6-methylpyrimidin-4-yl)-1-(methylsulfonyl)-6-(6-azaspiro[2.5]octan-6-yl)indoline-5-carboxamide]"
16,< 50,"O=C(Nc1ccc(=O)n(C2CCC(F)(F)CC2)n1)c1cc2c(cc1N1CCC3(CC1)CC3)N(S(=O)(=O)CCO)CC2 [EX21, N-(1-(4,4-difluorocyclohexyl)-6-oxo-1,6-dihydropyridazin-3-yl)-1-((2-hydroxyethyl)sulfonyl)-6-(6-azaspiro[2.5]octan-6-yl)indoline-5-carboxamide]"
17,< 50,"CC(C)n1nc(NC(=O)c2cc3c(cc2N2CCC4(CC2)CC4)N(S(=O)(=O)CCO)CC3)ccc1=O [EX22, 1-((2-hydroxyethyl)sulfonyl)-N-(1-isopropyl-6-oxo-1,6-dihydropyridazin-3-yl)-6-(6-azaspiro[2.5]octan-6-yl)indoline-5-carboxamide]"
18,500 to 15000,"Cc1cc(NC(=O)c2cc3c(cc2N2CCC4(CC2)CC4)N(C(=O)CCO)CC3)nc(N2CCC(F)(F)CC2)n1 [EX25, N-(2-(4,4-difluoropiperidin-1-yl)-6-methylpyrimidin-4-yl)-1-(3-hydroxypropanoyl)-6-(6-azaspiro[2.5]octan-6-yl)indoline-5-carboxamide]"
